Source: patent US12077503B2, “Substituted cyclic amides and their use as herbicides” (FMC CORPORATION, priority 2015, dated 2024)

Tests used:
Type in all cases: in vivo
[1] = tested on: giant foxtail (Setaria faberii); assay: Test A preemergence; details: Setaria faberi, pre-emergence, 240 h
In short: (§1)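 Visual injury, scored on a 0–100 scale relative to untreated controls, was recorded about 10 d after application. Treatments were a preemergence soil spray over planted seeds or a postemergence spray on plants at the one- to two-leaf stage, 2 to 10 cm tall, all in loam soil–sand blend in the greenhouse.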

[2] = tested on: ryegrass, Italian (Italian ryegrass, Lolium multiflorum); assay: Test A preemergence; details: Lolium multiflorum, pre-emergence, 240 h
In short: as §1

[3] = tested on: ragweed (common ragweed, Ambrosia elatior); assay: Test A preemergence; details: Ambrosia artemisiifolia, pre-emergence, 240 h
In short: as §1

[4] = tested on: barnyardgrass (Echinochloa crus-galli); assay: Test A preemergence; details: Echinochloa crus-galli, pre-emergence, 240 h
In short: as §1

[5] = tested on: pigweed (Amaranthus retroflexus); assay: Test A preemergence; details: Amaranthus retroflexus, pre-emergence, 240 h
Kochia (Kochia scoparia) [6] = assay: Test A preemergence; details: Bassia scoparia, pre-emergence, 240 h
In short: as §1

[7] = tested on: giant foxtail (Setaria faberii); assay: Test A postemergence; details: Setaria faberi, post-emergence, 240 h, read-out: Plant response rating, Foxtail, Giant
In short: as §1

[8] = tested on: Galium (catchweed bedstraw, Galium aparine); assay: Test A postemergence; details: Galium, post-emergence, 240 h, read-out: Plant response rating, Galium
In short: as §1

[9] = tested on: ryegrass, Italian (Italian ryegrass, Lolium multiflorum); assay: Test A postemergence; details: Lolium multiflorum, post-emergence, 240 h, read-out: Plant response rating, Ryegrass, Italian
In short: as §1

corn (Zea mays) = assay: Test A postemergence; details: Zea mays, post-emergence, 240 h
In short: as §1

[10] = tested on: blackgrass (Alopecurus myosuroides); assay: Test A postemergence; details: Alopecurus myosuroides, post-emergence, 240 h, read-out: Plant response rating, Blackgrass
In short: as §1

[11] = tested on: wheat (Triticum aestivum); assay: Test A postemergence; details: Triticum aestivum, post-emergence, 240 h, read-out: Plant response rating, Wheat
In short: as §1

[12] = tested on: ragweed (common ragweed, Ambrosia elatior); assay: Test A postemergence; details: Ambrosia artemisiifolia, post-emergence, 240 h, read-out: Plant response rating, Ragweed
In short: as §1

[13] = tested on: barnyardgrass (Echinochloa crus-galli); assay: Test A postemergence; details: Echinochloa crus-galli, post-emergence, 240 h, read-out: Plant response rating, Barnyardgrass
In short: as §1

[14] = tested on: pigweed (Amaranthus retroflexus); assay: Test A postemergence; details: Amaranthus retroflexus, post-emergence, 240 h, read-out: Plant response rating, Pigweed
In short: as §1

Kochia (Kochia scoparia) [15] = assay: Test A postemergence; details: Bassia scoparia, post-emergence, 240 h, read-out: Plant response rating, Kochia
In short: as §1

[16] = tested on: sedge, umbrella (small-flower umbrella sedge, Cyperus difformis); assay: Test B flooded paddy test; details: Cyperus difformis, 250 g ai/ha, Flood; 0 to 100 scale where 0 is no effect and 100 is complete control; read-out: Sedge, Umbrella plant response rating
In short: (§2)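 Percent control, visually estimated after 13–15 d in the greenhouse on a 0–100 basis, compares treated pots with untreated ones; compound was put into paddy water 3 cm above the soil when plants had two leaves.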

[17] = tested on: barnyardgrass (Echinochloa crus-galli); assay: Test B flooded paddy test; details: Echinochloa crus-galli, 250 g ai/ha, Flood; 0 to 100 scale where 0 is no effect and 100 is complete control; read-out: Barnyardgrass plant response rating
In short: as §2

[18] = tested on: ducksalad (Heteranthera limosa); assay: Test B flooded paddy test; details: Heteranthera limosa, 250 g ai/ha, Flood; 0 to 100 scale where 0 is no effect and 100 is complete control; read-out: Ducksalad plant response rating
In short: as §2

rice (Oryra sativa) = assay: Test B flooded paddy test; details: Oryza sativa, 250 g ai/ha, Flood; 0 to 100 scale where 0 is no effect and 100 is complete control; read-out: Rice plant response rating
In short: as §2

[19] = 125 g ai/ha, Postemergence, visual injury after approximately 10 d, 0 to 100 scale where 0 is no effect and 100 is complete control
[20] = 500 g ai/ha, postemergence, visual injury, 0 to 100 scale (0 no effect, 100 complete control), approx. 10 d

`COc1ccc([C@H]2CN(C)C(=O)[C@@H]2C(=O)Nc2ccccc2F)cc1F` [Compound 1020] was tested, and the pest or weed control at 125 g/ha ([1]; 125 g ai/ha, Preemergence, visual injury rating after approximately 10 d, read-out: Foxtail, Giant plant response rating (0 to 100 scale, 0 is no effect, 100 is complete control)) was 90%, the pest or weed control at 500 g/ha ([1]; 500 g ai/ha, preemergence, visual injury rating about 10 d after treatment, 0 to 100 scale (0 no effect, 100 complete control), read-out: Foxtail, Giant plant response rating) was 90% and the pest or weed control at 125 g/ha ([2]; 125 g ai/ha, Preemergence, visual injury rating after approximately 10 d, read-out: Ryegrass, Italian plant response rating (0 to 100 scale, 0 is no effect, 100 is complete control)) was 0%. The pest or weed control at 500 g/ha ([2]; 500 g ai/ha, preemergence, visual injury rating about 10 d after treatment, 0 to 100 scale (0 no effect, 100 complete control), read-out: Ryegrass, Italian plant response rating) was 30%, the pest or weed control at 125 g/ha ([3]; 125 g ai/ha, Preemergence, visual injury rating after approximately 10 d, read-out: Ragweed plant response rating (0 to 100 scale, 0 is no effect, 100 is complete control)) was 0% and the pest or weed control at 500 g/ha ([3]; 500 g ai/ha, preemergence, visual injury rating about 10 d after treatment, 0 to 100 scale (0 no effect, 100 complete control), read-out: Ragweed plant response rating) was 20%. The pest or weed control at 125 g/ha ([4]; 125 g ai/ha, Preemergence, visual injury rating after approximately 10 d, read-out: Barnyardgrass plant response rating (0 to 100 scale, 0 is no effect, 100 is complete control)) was 90%, the pest or weed control at 500 g/ha ([4]; 500 g ai/ha, preemergence, visual injury rating about 10 d after treatment, 0 to 100 scale (0 no effect, 100 complete control), read-out: Barnyardgrass plant response rating) was 90% and the pest or weed control at 125 g/ha ([5]; 125 g ai/ha, Preemergence, visual injury rating after approximately 10 d, read-out: Pigweed plant response rating (0 to 100 scale, 0 is no effect, 100 is complete control)) was 30%. For the same molecule, the pest or weed control at 500 g/ha ([5]; 500 g ai/ha, preemergence, visual injury rating about 10 d after treatment, 0 to 100 scale (0 no effect, 100 complete control), read-out: Pigweed plant response rating) was 40%, the pest or weed control at 125 g/ha (Kochia (Kochia scoparia) [6]; 125 g ai/ha, Preemergence, visual injury rating after approximately 10 d, read-out: Kochia plant response rating (0 to 100 scale, 0 is no effect, 100 is complete control)) was 30% and the pest or weed control at 500 g/ha (Kochia (Kochia scoparia) [6]; 500 g ai/ha, preemergence, visual injury rating about 10 d after treatment, 0 to 100 scale (0 no effect, 100 complete control), read-out: Kochia plant response rating) was 20%. The pest or weed control at 125 g/ha [7, 19] was 90%, the pest or weed control at 500 g/ha [7, 20] was 90% and the pest or weed control at 125 g/ha [8, 19] was 40%. The pest or weed control at 500 g/ha [8, 20] was 60%, the pest or weed control at 125 g/ha [9, 19] was 30% and the pest or weed control at 500 g/ha [9, 20] was 30%. The Corn plant response rating (crop injury, 0 = no effect, 100 = complete kill) at 125 g/ha (corn (Zea mays); [19]) was 0%, the Corn plant response rating (crop injury, 0 = no effect, 100 = complete kill) at 500 g/ha (corn (Zea mays); [20]) was 30% and the pest or weed control at 125 g/ha [10, 19] was 0%. For the same molecule, the pest or weed control at 500 g/ha [10, 20] was 20%, the plant injury at 125 g/ha [11, 19] was 0% and the plant injury at 500 g/ha [11, 20] was 30%. It also gave a pest or weed control at 125 g/ha [12, 19] of 0%, a pest or weed control at 500 g/ha [12, 20] of 0% and a pest or weed control at 125 g/ha [13, 19] of 90%. For the same molecule, the pest or weed control at 500 g/ha [13, 20] was 90%, the pest or weed control at 125 g/ha [14, 19] was 30% and the pest or weed control at 500 g/ha [14, 20] was 30%. For the same molecule, the pest or weed control at 125 g/ha (Kochia (Kochia scoparia) [15]; [19]) was 50%, the pest or weed control at 500 g/ha (Kochia (Kochia scoparia) [15]; [20]) was 50% and the pest or weed control at 250 g/ha [16] was 0%. For the same molecule, the pest or weed control at 250 g/ha [17] was 75%, the pest or weed control at 250 g/ha [18] was 90% and the pest or weed control at 250 g/ha (rice (Oryra sativa)) was 20%.
